From US7182954B1, “Prebiotic oligosaccharides via alternansucrase acceptor reactions” (priority 2003, dated 2007) come the findings set out here.

The test system of the assay is alternansucrase. The experiment in a line: Comparison of acceptor strengths with alternansucrase, relative amount of alternan formed. The note with it: for Alternan (Rel. %): 45 μL 10% (w/v) sucrose, 45 μL 10% (w/v) acceptor, 10 μL alternansucrase, pH 5.4, room temperature, less alternan = stronger acceptor; for acceptor strength for alternansucrase, in words: text summary of Table I.

Regarding `OC[C@H]1O[C@@H](O[C@@H]2[C@@H](CO)OC(O)(CO)[C@H]2O)[C@H](O)[C@@H](O)[C@H]1O` (mixture of isomers) [lactulose], the “Alternan (Rel. %)” value was 91 Rel. %.

With `O=CC[C@@H](O)[C@@H](O)[C@H](O)CO` [2-deoxy-D-galactose], the “Alternan (Rel. %)” value is listed as 89 Rel. %.

Consider `O=CC[C@@H](O)[C@H](O)[C@H](O)CO` [2-deoxy-D-glucose], for which the “Alternan (Rel. %)” value was 59 Rel. %.

In the case of `O=CC[C@H](O)[C@H](O)CO` [2-deoxy-D-ribose], the “Alternan (Rel. %)” value was 81 Rel. %.

For `O=C[C@H](O)[C@@H](O[C@H]1O[C@H](CO)[C@@H](O)[C@H](O)[C@H]1O)[C@H](O)[C@H](O)CO[C@H]1O[C@H](CO)[C@@H](O)[C@H](O)[C@H]1O` [3′-O-α-D-Glc isomaltose, 3-O-α-D-glucopyranosyl-6-O-α-D-glucopyranosyl-D-glucose], the “Alternan (Rel. %)” value was 31 Rel. %.

With `OC[C@H]1O[C@H](OC[C@H]2O[C@H](O[C@H]3O[C@H](CO[C@H]4O[C@H](CO)[C@@H](O)[C@H](O)[C@H]4O)[C@@H](O)[C@H](O)[C@H]3O)[C@H](O)[C@@H](O)[C@@H]2O)[C@H](O)[C@@H](O)[C@@H]1O` [6,6′-di-O-α-D-Glc-trehalose, 6,6′-di-O-α-D-glucopyranosyl-α,α-trehalose], the “Alternan (Rel. %)” value worked out at 54 Rel. % and the “acceptor strength for alternansucrase, in words” value was “relatively good acceptors”.

Consider `OC[C@H]1O[C@H](OC[C@H]2O[C@H](O[C@H]3O[C@H](CO)[C@@H](O)[C@H](O)[C@H]3O)[C@H](O)[C@@H](O)[C@@H]2O)[C@H](O)[C@@H](O)[C@@H]1O` [6-O-α-D-Glc-trehalose, 6-O-α-D-glucopyranosyl-α,α-trehalose], for which the “Alternan (Rel. %)” value worked out at 56 Rel. % and the “acceptor strength for alternansucrase, in words” value is “relatively good acceptors”.

Regarding `OC[C@H]1O[C@H](OC[C@H]2O[C@H](OC[C@H]3O[C@H](O[C@H]4[C@H](O)[C@@H](O)C(O)O[C@@H]4CO)[C@H](O)[C@@H](O)[C@@H]3O)[C@H](O)[C@@H](O)[C@@H]2O)[C@H](O)[C@@H](O)[C@@H]1O` (stereo partly drawn) [6″-O-α-D-Glc panose], the “Alternan (Rel. %)” value is recorded as 36 Rel. %.

With `O=C[C@H](O)[C@H](O)[C@H](O)[C@H](O)CO` [D-allose], the “Alternan (Rel. %)” value is on record as 75 Rel. %.

In the case of `O=C[C@@H](O)[C@H](O)[C@H](O)[C@H](O)CO` [D-altrose], the “Alternan (Rel. %)” value is listed as 92 Rel. %.

As to `O=C[C@@H](O)[C@H](O)[C@H](O)CO` [D-arabinose], the “Alternan (Rel. %)” value is listed as 99 Rel. %.

In the case of `O=C(CO)[C@@H](O)[C@H](O)[C@H](O)CO` [D-fructose], the “Alternan (Rel. %)” value came to 78 Rel. %.

On to `O=C[C@H](O)[C@@H](O)[C@@H](O)[C@H](O)CO` [D-galactose], for which the “Alternan (Rel. %)” value was 83 Rel. %.

As for `O=C[C@@H](O)[C@@H](O)[C@H](O)CO` [D-lyxose], the “Alternan (Rel. %)” value was determined as 99 Rel. %.

As for `O=C[C@@H](O)[C@@H](O)[C@H](O)[C@H](O)CO` [D-mannose], the “Alternan (Rel. %)” value was determined as 90 Rel. %.

Take `O=C(CO)[C@H](O)[C@H](O)[C@H](O)CO` [D-psicose]: the “Alternan (Rel. %)” value stood at 85 Rel. %.

As to `C[C@@H](O)[C@@H](O)[C@H](O)[C@@H](O)C=O` [D-quinovose], the “Alternan (Rel. %)” value turned out to be 61 Rel. %.

Consider `O=C[C@H](O)[C@H](O)[C@H](O)CO` [D-ribose], for which the “Alternan (Rel. %)” value worked out at 93 Rel. %.

Consider `O=C(CO)[C@H](O)[C@@H](O)[C@H](O)CO` [D-sorbose], for which the “Alternan (Rel. %)” value is reported as 97 Rel. %.

With `O=C(CO)[C@@H](O)[C@@H](O)[C@H](O)CO` [D-tagatose], the “Alternan (Rel. %)” value was found to be 65 Rel. %.

On to `O=C[C@@H](O)[C@@H](O)[C@@H](O)[C@H](O)CO` [D-talose], for which the “Alternan (Rel. %)” value is listed as 77 Rel. %.

Take `O=C[C@H](O)[C@@H](O)[C@H](O)CO` [D-xylose]: the “Alternan (Rel. %)” value was 86 Rel. %.

For the compound `O=C[C@H](O)[C@@H](O)[C@@H](O)CO` [L-arabinose], the “Alternan (Rel. %)” value is on record as 75 Rel. %.

For `C[C@H](O)[C@@H](O)[C@@H](O)[C@H](O)C=O` [L-fucose], the “Alternan (Rel. %)” value came to 94 Rel. %.

Regarding `O=C[C@@H](O)[C@H](O)[C@@H](O)[C@@H](O)CO` [L-glucose], the “Alternan (Rel. %)” value was 63 Rel. %.

In the case of `O=C[C@H](O)[C@H](O)[C@@H](O)CO` [L-lyxose], the “Alternan (Rel. %)” value is listed as 92 Rel. %.

As to `C[C@H](O)[C@H](O)[C@@H](O)[C@@H](O)C=O` [L-rhamnose], the “Alternan (Rel. %)” value was determined as 96 Rel. %.

`O=C(CO)[C@@H](O)[C@H](O)[C@@H](O)CO` [L-sorbose]: the “Alternan (Rel. %)” value came out at 88 Rel. %.

For `CC(=O)N[C@H]1C(O)O[C@H](CO)[C@H](O)[C@@H]1O` (stereo partly drawn) [N-acetyl-D-galactosamine], the “Alternan (Rel. %)” value is on record as 88 Rel. %.

`CC(=O)N[C@H]1C(O)O[C@H](CO)[C@@H](O)[C@@H]1O` (stereo partly drawn) [N-acetyl-D-glucosamine]: the “Alternan (Rel. %)” value was found to be 90 Rel. %.

Regarding `CC(=O)N[C@@H]1C(O)O[C@H](CO)[C@@H](O)[C@@H]1O` (stereo partly drawn) [N-acetyl-D-mannosamine], the “Alternan (Rel. %)” value amounted to 93 Rel. %.

`O=C[C@H](O)[C@@H](O)[C@H](O[C@@H]1O[C@H](CO)[C@@H](O)[C@H](O)[C@H]1O)[C@H](O)CO` [cellobiose]: the “Alternan (Rel. %)” value is listed as 72 Rel. %.

On to `OC[C@H]1O[C@@H]2OC[C@H]3O[C@H](O[C@@H]4[C@@H](O)[C@@H](OC[C@H]5O[C@H](O[C@H]([C@H]2O)[C@@H]1O)[C@H](O)[C@@H](O)[C@@H]5O)O[C@H](CO)[C@H]4O)[C@H](O)[C@@H](O)[C@@H]3O` [cycloGlc4 (cyclo-alternan), cycloalternan], for which the “Alternan (Rel. %)” value came to 90 Rel. %.

For the compound `OC[C@@H](O)[C@H](O)[C@H](O)[C@@H](O)CO` [dulcitol], the “Alternan (Rel. %)” value is given as 101 Rel. %.

With `O=C[C@@H](O)[C@H](O[C@@H]1O[C@H](CO)[C@H](O)[C@H](O)[C@H]1O)[C@H](O)CO` [galactosyl-arabinose, 3-O-β-D-galactopyranosyl-D-arabinose], the “Alternan (Rel. %)” value was 90 Rel. %.

Regarding `OC[C@H]1O[C@@](CO)(O[C@H]2O[C@H](CO[C@@H]3O[C@H](CO)[C@@H](O)[C@H](O)[C@H]3O)[C@@H](O)[C@H](O)[C@H]2O)[C@@H](O)[C@@H]1O` [gentianose], the “Alternan (Rel. %)” value is reported as 66 Rel. %.

Take `OC[C@H]1O[C@H](OC[C@H]2OC(O)[C@H](O)[C@@H](O)[C@@H]2O)[C@H](O)[C@@H](O)[C@@H]1O` (stereo partly shown) [isomaltose]: the “Alternan (Rel. %)” value worked out at 44 Rel. %.

Take `OC[C@H]1O[C@H](OC[C@H]2O[C@H](OC[C@H]3OC(O)[C@H](O)[C@@H](O)[C@@H]3O)[C@H](O)[C@@H](O)[C@@H]2O)[C@H](O)[C@@H](O)[C@@H]1O` (stereo partly shown) [isomaltotriose]: the “Alternan (Rel. %)” value amounted to 50 Rel. %.

As to `OC[C@H]1O[C@H](O[C@H]2C(O)O[C@H](CO)[C@@H](O)[C@@H]2O)[C@H](O)[C@@H](O)[C@@H]1O` (stereo partly shown) [kojibiose], the “Alternan (Rel. %)” value is given as 27 Rel. %.

As to `OC[C@H]1O[C@H](O[C@H]2[C@@H](O[C@H]3C(O)O[C@H](CO)[C@@H](O)[C@@H]3O)O[C@H](CO)[C@@H](O)[C@@H]2O)[C@H](O)[C@@H](O)[C@@H]1O` (stereo partly shown) [kojitriose], the “Alternan (Rel. %)” value amounted to 86 Rel. %.

Take `OC[C@H]1O[C@@H](O[C@H]2[C@H](O)[C@@H](O)C(O)O[C@@H]2CO)[C@H](O)[C@@H](O)[C@H]1O` (stereo partly shown) [lactose]: the “Alternan (Rel. %)” value was 79 Rel. %.
